Patent publication US12187758B2 (ROME Therapeutics, Inc., priority 2022, dated 2025)

What was measured:
Type in all cases: cell-based
[1] = system: THP1-Dual KO-TREX1 cells; experiment: THP1 TREX1 KO inhibition assay (type 1 interferon response); settings: Homo sapiens, 144 h, type 1 interferon (QUANTI-LUC), 1 μM 5-aza-2′-deoxycytidine, six days
Method in brief: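 THP1-Dual KO-TREX1 cells were treated with a dose titration of compound, alone or with 1 μM 5-aza-2′-deoxycytidine, for six days at 37 °C. Type 1 interferon was read as secreted luciferase (QUANTI-LUC) in the supernatant, and viability by CellTiter-Glo luminescence.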

[2] = system: phosphorylated TANK-binding kinase 1 (pTBK1); experiment: UVB-induced pTBK1 in HaCaT cells; settings: for IC50: Homo sapiens, light or radiation study, pTBK1 response curves, 72 hours compound treatment, UVB
Procedure: pTBK1 is an important signaling molecule in regulating inflammatory responses. HaCaT cells were plated in 6-well plates at a density of ˜100 k/well in HaCaT media (DMEM, optimized 1× (Addex Bio)+ 1% pen strep (Gibco)^+ 5% heat inactivated fetal bovine serum (Gibco)). The cells were then cultured at 37° C. overnight. The next day, the cells were treated with the test compounds. Each test compound was diluted and added to media aliquots to provide desired concentrations. To add the test compound+media mixture, an equivalent amount of media from each well was aspirated and then replenished with the media dosed with the test compound. The cells were then cultured for an additional 72 hours with compound treatment prior to UVB exposure.
The media was then aspirated from the wells, with the remaining cells at least 80% confluent in each well. One mL of PBS was then added to each well, and the plate was then placed under a UVB lamp. A UVB sensor was positioned near the plate to register the plate's exposure. The cells were exposed to the UVB light until they reached 0.1 mJ/cm2. Then the plate was covered and transferred to a sterile hood for processing.
The PBS was aspirated out of the wells, and the wells were replenished with 3 mL fresh culture media. The cells were then cultured for an additional 24 hours, and samples were processed 24 hours post-UVB exposure. To process the samples, the media was aspirated, the plate placed on ice, and the cells washed with cold PBS, which was then aspirated off. Another 1 mL of cold PBS was added to each well. The cells were then scraped in the cold PBS solution and transferred to conical tubes on ice. The cells were then spun at ≥1000 RCF at 4° C. for 5 minutes. The cells were then resuspended in 1 mL of cold PBS and transferred to a microcentrifuge tube. The cells were spun at ≥1000 RCF at 4° C. for another 5 minutes, and the PBS was aspirated off. The cell pellet was prepared for lysis.
A RIPA lysis buffer (#BP-115, Boston BioProducts) was added to a Halt protease and […] inhibitor cocktail (#78440, ThermoFisher), and the mixture was cooled on ice. About 30 μL of the lysis buffer mix was added to the cells. The samples were briefly vortexed and then incubated on ice for at least 15 minutes. The cells were then spun≥1000 RCF at 4° C. for 5 minutes and the supernatant was transferred to a clean tube. The protein concentration of the cell lysate was measured using Pierce™ Rapid Gold BCA Protein Assay Kit #AF3225 (ThermoFisher). ELISA analysis was run on select samples using one of the following kits: • a. FastScan™ Phospho-TBK1/NAK (Ser172) ELISA Kit #46948 (Cell Signaling Technologies) • b. FastScan™ Total TBK1/NAK ELISA Kit #15816 (Cell Signaling Technologies) • c. FastScan™ Phospho-STING (Ser366) ELISA Kit #82083 (Cell Signaling Technologies) • d. FastScan™ Phospho-IRF-3 (Ser396) ELISA Kit #50386 (Cell Signaling Technologies) • e. FastScan™ Total IRF-3 ELISA Kit #29771 (Cell Signaling Technologies) • f. Phospho-NAK/TBK1 (S172) ELISA Kit (ab279952) (Abcam) • g. Phospho-IRF3 (S386) ELISA Kit (ab279833) (Abcam) Part II—Results
In the table “A” represents values≤0.50 μM; “B” represents values from >0.50 μM to ≤2.0 μM; “C” represents values from >2.0 μM to ≤5.0 μM; “D” represents values from >5.0 μM to ≤10 μM; and “E” represents values>10 μM.

[3] = system: PC3 cells; experiment: Mitochondria toxicity assay with PC3 cells, cytotoxicity (Cell Titer Glo); settings: Homo sapiens, PC-3, 120 h, 5 days treatment
Method in brief: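 Cytotoxicity reported in μM bins, A <1.0 through E >100.0. Measured via Cell Titer Glo luminescence (30 min, room temperature) after 5-day dose-titration treatment of PC3 cells, grown in F-12K/10% FBS, at 37° C, 5% CO2.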

Structure (SMILES) | IC50 [1] [µM] | cytotoxicity at concentrations [2] [µM] | IC50 [2] [µM] | IC50 [3] [µM]
Nc1nc(=O)n([C@H]2C[C@H](O)[C@](CO)(CCl)O2)cc1F [Compound 14, 4-amino-1-((2R,4S,5R)-5-(chloromethyl)-4-hydroxy-5-(hydroxymethyl)tetrahydrofuran-2-yl)-5-fluoropyrimidin-2(1H)-one] | 0.1 to 0.25 | ≥ 30 | 0.5 to 2 | > 100
C[C@@H]1[C@H](n2ccc(N)nc2=O)O[C@](C)(CO)[C@H]1O [Compound 19, 4-amino-1-((2R,3S,4S,5R)-4-hydroxy-5-(hydroxymethyl)-3,5-dimethyltetrahydrofuran-2-yl)pyrimidin-2(1H)-one] | > 1 |  | > 10 | 50 to 100
Nc1ncnc2c1ncn2[C@H]1C[C@H](O)[C@](CO)(CCl)O1 [Compound 15, (2R,3S,5R)-5-(6-amino-9H-purin-9-yl)-2-(chloromethyl)-2-(hydroxymethyl)tetrahydrofuran-3-ol] | > 1 |  | > 10 | > 100
CO[C@@H]1[C@H](n2ccc(N)nc2=O)O[C@@](CO)(CCl)[C@H]1O [Compound 13, 4-amino-1-((2R,3S,4S,5R)-5-(chloromethyl)-4-hydroxy-5-(hydroxymethyl)-3-methoxytetrahydrofuran-2-yl)pyrimidin-2(1H)-one] | > 1 |  | > 10 | > 100
Nc1ccn([C@H]2C[C@H](O)[C@](CO)(CCl)O2)c(=O)n1 [Compound 2, 4-amino-1-((2R,4S,5R)-5-(chloromethyl)-4-hydroxy-5-(hydroxymethyl)tetrahydrofuran-2-yl)pyrimidin-2(1H)-one] | 0.05 to 0.1 |  | ≤ 0.5 | > 100
C[C@@H]1[C@H](n2ccc(N)nc2=O)O[C@@](CO)(CCl)[C@H]1O [Compound 12, 4-amino-1-((2R,3S,4S,5R)-5-(chloromethyl)-4-hydroxy-5-(hydroxymethyl)-3-methyltetrahydrofuran-2-yl)pyrimidin-2(1H)-one] | > 1 |  | > 10 | > 100
C#C[C@]1(CO)O[C@@H](n2cnc3c(N)nc(Cl)nc32)C[C@@H]1O [Compound 25] | > 1 |  |  | > 100
CC[C@]1(CO)O[C@@H](n2ccc(N)nc2=O)[C@@H](F)[C@@H]1O [Compound 51, 4-amino-1-((2R,3S,4R,5R)-5-ethyl-3-fluoro-4-hydroxy-5-(hydroxymethyl)tetrahydrofuran-2-yl)pyrimidin-2(1H)-one] | > 1 |  | > 10 | > 100
Nc1ccn([C@H]2C[C@H](O)[C@](CO)(C3CC3)O2)c(=O)n1 [Compound 16, 4-amino-1-((2R,4S,5R)-5-cyclopropyl-4-hydroxy-5-(hydroxymethyl)tetrahydrofuran-2-yl)pyrimidin-2(1H)-one] | > 1 |  | > 10 | > 100
Nc1ccn([C@@H]2O[C@@](CO)(CCl)[C@@H](O)[C@@H]2F)c(=O)n1 [Compound 40, 4-amino-1-((2R,3S,4R,5R)-5-(chloromethyl)-3-fluoro-4-hydroxy-5-(hydroxymethyl)tetrahydrofuran-2-yl)pyrimidin-2(1H)-one] | > 1 |  | 2 to 5 | > 100
CC[C@]1(CO)O[C@@H](n2ccc(N)nc2=O)C[C@@H]1O [Compound 44, 4-amino-1-((2R,4S,5R)-5-ethyl-4-hydroxy-5-(hydroxymethyl)tetrahydrofuran-2-yl)pyrimidin-2(1H)-one] | > 1 |  | > 10 | > 100

Now from value to molecule, other results behind:

IC50 [1] [µM] | Structure (SMILES) | cytotoxicity at concentrations [2] [µM] | IC50 [2] [µM] | IC50 [3] [µM]
> 1 | [N-]=[N+]=N[C@]1(CO)O[C@@H](n2cc(F)c(N)nc2=O)C[C@@H]1O [Compound 61, 4-amino-1-((2R,4S,5R)-5-azido-4-hydroxy-5-(hydroxymethyl)tetrahydrofuran-2-yl)-5-fluoropyrimidin-2(1H)-one] |  | > 10 | > 100
0.25 to 1 | Nc1nc(=O)n([C@@H]2O[C@@](CO)(CCl)[C@@H](O)[C@@H]2F)cc1F [Compound 67, 4-amino-1-[(2R,3S,4R,5R)-5-(chloromethyl)-3-fluoro-4-hydroxy-5-(hydroxymethyl)oxolan-2-yl]-5-fluoropyrimidin-2-one] |  | 2 to 5 | > 100
0.25 to 1 | Nc1nc(=O)n([C@H]2C[C@H](O)[C@](CO)(CBr)O2)cc1F [Compound 88, 4-amino-1-((2R,4S,5R)-5-(bromomethyl)-4-hydroxy-5-(hydroxymethyl)tetrahydrofuran-2-yl)-5-fluoropyrimidin-2(1H)-one] |  | > 10 | > 100
> 1 | Nc1nc(=O)n([C@@H]2O[C@@](CO)(CF)[C@@H](O)[C@@H]2O)cc1F [Compound 72, 4-amino-5-fluoro-1-((2R,3S,4S,5R)-5-(fluoromethyl)-3,4-dihydroxy-5-(hydroxymethyl)tetrahydrofuran-2-yl)pyrimidin-2(1H)-one] |  | 5 to 10 | 50 to 100
0.25 to 1 | Nc1nc(=O)n([C@@H]2O[C@@](CO)(CF)[C@@H](O)[C@@H]2F)cc1F [Compound 85, 4-amino-5-fluoro-1-[(2R,3S,4R,5R)-3-fluoro-5-(fluoromethyl)-4-hydroxy-5-(hydroxymethyl)oxolan-2-yl] pyrimidin-2-one] |  | 5 to 10 | > 100
